Measurements published in the METLIN SMRT retention time set (Domingo-Almenara et al. 2019).

Assay: gradient 5% acetonitrile 3 min, to 50% in 2 min, to 85% in 15 min, held 3 min, 100 µL/min
Conditions: column: Zorbax Extend-C18 2.1 x 50 mm; eluents: water / acetonitrile, 0.1% formic acid
Procedure, shortened: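 In both positive and negative ionization mode, a quadrupole time-of-flight mass spectrometer coupled to HPLC analyzed pure standards run in mixtures of ~100 molecules. The Zorbax Extend-C18 column (2.1 × 50 mm, 1.8 μm) was operated at 100 μL/min with water and acetonitrile, each containing 0.1% formic acid. The dead volume was 40 μL and the dwell volume 900 μL. Retention time came from adduct peaks that were computationally picked and individually inspected by hand.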

Row | RP-LC retention time [s] | Structure (SMILES)
1 | 929 | Cc1nc2cc(-c3noc(-c4ccc(C#N)cc4)n3)ccc2n(C(C)C)c1=O
2 | 908 | Cc1ccc(C)c(N2CCN(C(=O)CN(C)S(=O)(=O)c3ccc4c(c3)CCCC(=O)N4)CC2)c1
3 | 806 | CCCN(C)c1nccn2c(=O)n(CC(=O)Nc3ccc(F)cc3)nc12
4 | 637 | CCN(CC)CCNC(=O)c1cc(S(=O)(=O)N2CCCCC2)ccc1Cl
5 | 654 | Cc1cc2[nH]c(C(=O)Nc3ccccc3F)c(CN(C)C)c2s1
6 | 604 | CCOC(=O)c1[nH]c(C)c(CCC(=O)N2CCC(C(=O)NCCCN3CCCC(C)C3)CC2)c1C (stereo not drawn)
7 | 676 | CCn1ccc2cc(S(=O)(=O)N3CCCC(C(=O)NCCCN4CCCCC4)C3)ccc21 (stereo not drawn)
8 | 1070 | Cc1c(C(=O)NC2CCCCCC2)sc2ncn(CC(=O)N3CC(C)CC(C)C3)c(=O)c12 (stereo not drawn)
9 | 647 | COc1ccc(C(O)CN2CCN(c3ccc(OC)cc3)CC2)cc1 (stereo not drawn)
10 | 910 | CCc1nc(OCC(=O)Nc2ccc(Br)cc2F)c2ccccc2n1
11 | 1050 | COCCn1cc(C(=O)Nc2cccc(Cl)c2)c2nn(-c3ccccc3)c(=O)c-2c1
12 | 676 | O=C(c1cn(-c2ccc(-c3nc(C4CC4)no3)cn2)cn1)N1CCCC1
13 | 754 | O=S(=O)(c1cccs1)N1CCN(c2ncccn2)CC1
14 | 745 | CCc1ccc(C2=C(C)C(N3CCCN(C(C)=O)CC3)=NS2(=O)=O)cc1
15 | 1030 | COc1ccc(-c2cc(C(=O)N3CCN(S(=O)(=O)c4ccc(C(C)(C)C)cc4)CC3)[nH]n2)cc1
16 | 641 | CCn1cc(-c2ccncc2)cc1C(=O)NCc1ccc2c(c1)OCO2
17 | 903 | COC(=O)c1ccc2c(=O)n(-c3cc(OC)cc(OC)c3)c(N3CCOCC3)nc2c1
18 | 726 | CCNC(=O)c1sc(Nc2ccc(Cl)cn2)nc1C
19 | 540 | COc1ccccc1NC(=O)N1CCc2[nH]cnc2C1c1ccncc1 (stereo not drawn)
20 | 716 | CCCNC(=O)C1CCCN(c2nc3ncn(CC(=O)Nc4cc(F)ccc4F)c(=O)c3s2)C1 (stereo not drawn)
21 | 826 | CCNC(=O)c1cnn(-c2cc(-c3nc(C4CC4)no3)ccn2)c1C
22 | 799 | CCOc1ccccc1CN1C(=O)C2(CCOCC2)CC1c1nnnn1C(C)(C)C (stereo not drawn)

Row | RP-LC retention time [s] | Structure (SMILES)
23 | 718 | COc1ccc(NC(=O)C2CCN(c3cnc4nc(C)c(C)nc4c3)CC2)cc1F
24 | 880 | CCOc1ccc(CNC(=O)C2CCN(S(=O)(=O)c3ccc4c(c3)NC(=O)CO4)CC2)cc1
25 | 708 | Cc1cccc(-c2ccc(N3CCCC(C(=O)NC4CCCC4)C3)nn2)c1 (stereo not drawn)
26 | 628 | CS(=O)(=O)N1CCOc2ccc(CCC(N)=O)cc2C1
27 | 984 | CCCN1C(=O)c2ccccc2Sc2cc(-c3noc(C(C)NC(=O)c4ccco4)n3)ccc21 (stereo not drawn)
28 | 761 | CCNc1nc(-c2ccccc2F)no1
29 | 766 | O=C1NC2(CCN(C(=O)NCCc3ccccc3)CC2)Nc2cc(Cl)ccc21
30 | 605 | CCOC(=O)c1cnc(N2CCN(Cc3ccc4c(c3)OCO4)CC2)[nH]c1=O
31 | 807 | CCOc1ccccc1NC(=O)N1CCC2(CC1)NC(=O)c1ccccc1N2C
32 | 736 | Cc1ccc(-c2cc(N3CCN(C(=O)c4ccc(C)c(C)c4)CC3)ncn2)cc1
33 | 674 | CCN(CC)c1ncnc2c(-c3ccccc3)cn(CC(=O)N3CCCC3)c12
34 | 1090 | COc1ccccc1CCC(=O)N1CCc2cc(-c3csc(C)n3)ccc21
35 | 911 | CCSC(=O)N1c2ccc(OC)cc2C=CC1C#N (stereo not drawn)
36 | 586 | CC(C)(NC(=O)C1CCC1)c1nc2c(c(C(N)=O)n1)OCCO2
37 | 964 | Cn1cc(-c2nc(C(=O)NCc3cccc(Cl)c3)cs2)c2cccnc21
38 | 812 | CCN1C(=O)C(C)(C(=O)NCc2ccccc2)Oc2cccnc21 (stereo not drawn)
39 | 839 | CS(=O)(=O)N1CCC(C(=O)NCc2ccco2)Oc2ccc(Cl)cc21 (stereo not drawn)
40 | 721 | Cc1ccc2c(c1)C(=O)NC1(CCN(C(=O)c3ccc4c(c3)OCO4)CC1)N2C
41 | 1040 | CCCn1cc(C(=O)NCC(=O)OCC)c(S(=O)(=O)N2CCN(c3ccc(Cl)cc3)CC2)n1
42 | 862 | CC(C)n1cnc(S(=O)(=O)N2CCC(C(=O)Nc3cccc(C(F)(F)F)c3)CC2)c1
43 | 877 | Cc1ccc(Cl)cc1N1CCN(C(=O)c2ccc(Cn3cncn3)cc2)CC1
44 | 1160 | CC1Oc2ccccc2N(Cc2nc(-c3ccc(Cl)cc3)no2)C1=O (stereo not drawn)

Row | RP-LC retention time [s] | Structure (SMILES)
45 | 655 | O=C(c1ccc(Nc2c(-c3ccccc3)nc3cnccn23)cc1)N1CCOCC1
46 | 627 | CC(C)CN(Cc1cccnc1)C1CN(C(=O)NCc2ccccc2)C1
47 | 706 | Cc1ccccc1NC(=O)N1C[C@@H]2C[C@H](NC(=O)c3cccs3)[C@H]1C2
48 | 1010 | CCc1cc(C(=O)Nc2ccccc2C)nc2ccnn12
49 | 662 | Cn1nc(C(=O)N2CCCC(C(=O)N3CCCC3)C2)c2c1CCN(C(=O)c1ccccc1Cl)C2 (stereo not drawn)
50 | 909 | O=C(Cc1csc2nc(-c3cccc(Br)c3)cn12)NCc1ccc(F)cc1
51 | 945 | Cc1ccc(NC(=O)c2cccn2Cc2noc(C)n2)c(Cl)c1
52 | 770 | CCc1nnc2ccc(-c3noc(COc4ccc(Cl)cc4)n3)cn12
53 | 677 | O=C(NCc1ccccc1Cl)C1CCN(c2cncnc2N2CCCC2)CC1
54 | 1120 | Cc1ccc(-c2nc(Nc3cccc(C(F)(F)F)c3)sc2CC(=O)O)c(C)c1
55 | 922 | COc1ccccc1NC(=O)CN1C(=O)C(c2ccc(Cl)cc2)=NC1(C)C
56 | 846 | O=S(=O)(c1ccccc1Cl)N1CCN(Cc2cccc(F)c2)C2(CCOCC2)C1
57 | 764 | COCCNC(=O)C1CCN(c2nccnc2Sc2ccccc2)CC1
58 | 924 | CCOc1ccc(N2C=C(C(=O)OC)S(=O)(=O)c3cc(F)ccc32)cc1
59 | 900 | CCc1ccc(-c2cn3ccn(-c4ccc(F)cc4)c(=O)c3n2)cc1
60 | 765 | CCOc1ccc(NC(=O)Cn2nc3cc(C)nc(N4CCCC4)n3c2=O)cc1
61 | 1050 | O=C(Cc1cccs1)N1CCCC(c2ccnc(-c3ccc(F)cc3)n2)C1 (stereo not drawn)
62 | 745 | Cc1cc(Br)ccc1NC(=O)C1CCN(c2cc(=O)n(C)c(=O)n2C)CC1
63 | 770 | CCNc1nc(C)cc(N2CCN(S(=O)(=O)c3ccc(Cl)c(Cl)c3)CC2)n1
64 | 752 | CCc1noc(-c2ccc(-n3ncc(C(=O)N4CCOCC4)c3C)nc2)n1
65 | 760 | Cc1ccccc1CNC(=O)C1CCCN(C(=O)C2Sc3ccccc3NC2=O)C1 (stereo not drawn)
66 | 537 | O=C(O)c1ccccc1-c1nc2ccccc2[nH]1

Row | RP-LC retention time [s] | Structure (SMILES)
67 | 714 | CCC(=O)Nc1ccc2c(c1)CN(C(=O)c1ccccc1Cl)C(C(=O)N1CCCC1)C2 (stereo not drawn)
68 | 646 | Cc1nc(-c2noc(-c3cccnc3)n2)cn1CC(=O)NC1CCCC1
69 | 662 | CC(=O)N1CCN(C(=O)[C@@]23CCCC[C@H]2N(CCC(C)C)C(=O)CC3)CC1
70 | 935 | CCOc1ccccc1NC(=O)N1CCC(n2cnc3cc(Cl)ccc3c2=O)CC1
71 | 690 | CCOC(=O)c1nc(NCCCN2CCC(Cc3ccccc3)CC2)c2ccccc2n1
72 | 1040 | COc1ccccc1N1CCN(c2cc(SCC(=O)Nc3ccc(C)cc3C)ncn2)CC1
73 | 872 | Cc1nn(CC(=O)NCc2ccc(F)cc2)c(=O)c2nc(-c3ccccc3)sc12
74 | 1200 | CCOC(=O)c1ccc2nc(C(F)(F)F)nc(N3CCc4ccccc4C3)c2c1
75 | 752 | COCCn1cc(CCNC(=O)Nc2ccccc2Cl)c2cccnc21
76 | 729 | Cc1ccc(/C=C/S(=O)(=O)N2CC(c3nc(-c4ncccn4)no3)C2)cc1
77 | 727 | O=C(Cn1nc2c3ccccc3ncn2c1=O)Nc1ccc(Cl)cc1
78 | 841 | CC(C)NC(=O)c1ccc(OCC2CCCN(C(=O)c3c(F)cccc3F)C2)cc1 (stereo not drawn)
79 | 845 | COc1cccc(CNC(=O)C2CCCN(C(=O)c3[nH]c(C)c(C(=O)OC(C)C)c3C)C2)c1 (stereo not drawn)
80 | 805 | COc1ccc2c(c1)C=C(C(=O)NCc1ccc(OC)c(OC)c1)CO2
81 | 730 | O=C(Nc1ccc(N2CCCN(C(=O)C3CC3)CC2)cc1)c1cc(-c2ccc(F)cc2)n[nH]1
82 | 1070 | COc1ccc(-c2noc(-c3cccnc3N3CCN(c4ccc(OC)cc4)CC3)n2)cc1
83 | 722 | COc1ccc(C(=O)CC2(O)C(=O)Nc3ccc(C)cc32)c(OC)c1OC (stereo not drawn)
84 | 681 | O=C(NCC1CC1)C1CCN(C(=O)c2ncn3c2COC(c2ccccc2)C3)CC1 (stereo not drawn)
85 | 755 | O=C(c1ccc([N+](=O)[O-])o1)N1CCN(Cc2nnnn2-c2ccc(F)cc2)CC1
86 | 788 | Cc1cccc(Cc2c(C)nc3c(C(=O)O)cnn3c2C)c1
87 | 693 | CCc1ccc(S(=O)(=O)N2CCN(c3ccc4nncn4n3)CC2)s1
88 | 909 | CN(C)S(=O)(=O)c1ccc(-c2nnc(C(=O)NCc3ccc(Cl)cc3)o2)cc1
